The results in this text go back to US20230039816A1, “METHOD FOR INDUCING HEPATOCYTE PLASTICITY” (Public University Corporation Yokohama City University, priority 2019, published 2023).

Series [1] relates to D22-Hep. Nature of the series: Induction of proliferation of D22-Hep in reprogramming medium (RM). In kind it is cell-based, human. To be noted: 6 days in BM+SMs/RM; PD0325901 0.01-1 μM, LY294002 10 μM, DZNep 0.1 μM, FGF2 added to BM+SMs. The method, then:
(§1) The medium was changed on day 1, 3, and 5. To block the PI3K and MAPK signaling pathways, 10 μM LY29002 and a given dose of PD0325902 (0.01 μM˜1 μM) were each added to RM. […] To regulate epigenetic modification, 0.25 mM NaB, 0.5 mM VPA, 10 μM Trany, 0.5 μM RG108 and 0.5 μM BIX were added in RM. The number of cells was analyzed using an Incell analyzer 2000 (GE Healthcare) combined with Hoechst 33342 staining (Invitrogen).

Series [2] relates to D22-pHC. Nature of the series: Hepatocyte differentiation from pHC. In kind it is cell-based, human. To be noted: HDM with 3 μM RA, 15 days. As to the method:
The hepatocyte differentiation of pHCs was initiated at about 90% confluence. For 8 days, the medium was changed to HDM containing 3 μM RA and for another 7 days, the medium was changed to RA-free HDM. The medium was changed every 2 days. The total hepatocyte differentiation period was 15 days.

Series [3] deals with old N-Heps (D52-, D62-, D72-, D82-Hep). Nature of the series: Plasticity induction of old N-Heps in RM with epigenetic regulators. To be noted: RM with 0.25 mM NaB, 0.5 mM VPA, 10 μM Trany, 0.5 μM RG108 or 0.5 μM BIX. It counts as cell-based, human. The method, then: as §1
For series [4], the system named is elderly model (mice fed CDE diet). Nature of the series: Induction of hepatic progenitor cells in elderly mice on CDE diet. In kind it is in vivo. From the text:
Finally, we investigated whether HDACi could improve the induction of hepatic progenitor cells in elderly models. To induce hepatic progenitor cells in mice, we fed young and elderly mice with a choline-deficient, ethionine-supplemented (CDE) diet for 21 days.

The test system of series [5] is PHHs. Nature of the series: Plasticity induction of primary human hepatocytes. It counts as cell-based. To be noted: PHHs in RM+NaB vs RM. As to the method:
The cryopreserved PHHs were thawed according to the manufacturer's instructions. For the positive control experiments, PHHs were cultured on collagen I-coated culture dishes at a density of 1×10^5 cells/cm^2 using Williams E medium containing 5% FBS, 1 μM dexamethasone, 100 IU/mL penicillin (Thermo Fisher Scientific), 100 μg/mL streptomycin (Thermo Fisher Scientific), 4 μg/mL Human Recombinant Insulin (Sigma), 2 mM GlutaMAX (Thermo Fisher Scientific), and 15 mM HEPES (Sigma). After 24 h, the supernatant from PHHs was collected for ALB analysis. […] At day 0 of culture, 5% FBS was used to improve cell adherence. After 24 h, the medium was exchanged with a fresh medium and subsequently changed every 2 days.

Series [6] concerns EZH2. Nature of the series: EZH2 transcription by Q-PCR in reprogrammed hepatocytes. In kind it is cell-based, human. To be noted: RM treated D22-Hep. As to the method: The medium was changed on day 1, 3, and 5. To block the PI3K and MAPK signaling pathways, 10 μM LY29002 and a given dose of PD0325902 (0.01 μM 1 μM) were each added to RM. […] To regulate epigenetic modification, 0.25 mM NaB, 0.5 mM VPA, 10 μM Trany, 0.5 μM RG108 and 0.5 μM BIX were added in RM. […] Total RNA was isolated using a PureLinkTM RNA Mini Kit.

As for “FGF2: Recombinant Human FGF2, member of the FGF family”, the “induced cellular proliferation of D22-Hep” value in series [1] is “the induced proliferative ability greatly improved”.
Take `CC1=C(/C=C/C(C)=C/C=C/C(C)=C/C(=O)O)C(C)(C)CCC1` [retinoic acid]: the “ALB production and hepatocyte morphology” value in series [2] was “significant improvement in ALB production and typical hepatocyte morphology”.
On to `CCCC(CCC)C(=O)O` [VPA, valproic acid], for which, in series [3], the “proliferation of pHCs induced from D52-Heps” value (“proliferation of pHCs induced” for short) was “markedly promoted the proliferation of pHCs”.
For `COc1cc2nc(N3CCCN(C)CC3)nc(NC3CCN(Cc4ccccc4)CC3)c2cc1OC` [BIX01294], the “proliferation of pHCs induced” value in series [3] is recorded as “such promotion was not detectable”.
On to `Cl.Nc1nccc2c1ncn2[C@@H]1C=C(CO)[C@@H](O)[C@H]1O` [DZNep, 3-deazaneplanocin A hydrochloride], for which, in series [1], the “induced cellular proliferation of D22-Hep” value is listed as “significant attenuation of the induced cellular proliferation”.
Turning to `CCCC(=O)[O-].[Na+]` [NaB, sodium butyrate], the “proliferation of pHCs induced” value in series [3] is “markedly promoted the proliferation of pHCs”. Moreover, the survival rate entry in series [4] (CDE diet) is on record as “improved”. Besides, in series [4] (CDE diet 21 days, liver sections), the “induced Ki67 positive and Epcam positive population” value is “significantly increased”. For the same compound, the plasticity induction efficiency result in series [5] was “significantly increased the plasticity induction efficiency”.
Regarding `O=C(O)C(Cc1c[nH]c2ccccc12)N1C(=O)c2ccccc2C1=O` (stereo not shown) [RG108], the “proliferation of pHCs induced” value in series [3] is on record as “such promotion was not detectable”.
As for `N[C@@H]1C[C@H]1c1ccccc1` (racemic) [tranylcypromine], in series [3], the “proliferation of pHCs induced” value is “such promotion was not detectable”.
With `O=C(NOC[C@H](O)CO)c1ccc(F)c(F)c1Nc1ccc(I)cc1F` [PD0325901], the EZH2 transcription entry in series [6] is “suppressed”. For the same compound, in series [1], the “induced cellular proliferation of D22-Hep” value is “inhibited the FGF2-mediated cellular proliferation in a dose-dependent manner”.
